{"source": "patent US20240299377A1", "about": "“METHODS AND COMPOSITIONS FOR TREATING IRON DISORDERS” (BeyondSpring Pharmaceuticals, Inc., priority 2019, published 2024)", "test_system": "plasma haptoglobin levels", "assay": "Plasma haptoglobin levels in non-metastatic breast cancer patients receiving TAC plus plinabulin (hematology safety assessments)", "type": "in vivo, human", "source_text": "Method. Non-metastatic Breast Cancer patients receiving TAC (taxotere, doxorubicin, cyclophosphamide) also received plinabulin at a dose of 10 (n=15), 20 (n=15) or 30 (n=12) mg/m^2. Hematology safety assessments were done at predose, and post-dose plinabulin at Day 2, 3, 6, 7, 8, 9, 10, 11, 12, 13 and 15, as predefined prospectively per protocol. Plinabulin was given on Day 1 as a single dose per 21-day cycle.", "data": [{"smiles": "CC(C)(C)c1[nH]cnc1/C=c1\\[nH]c(=O)/c(=C/c2ccccc2)[nH]c1=O", "note": "[Plinabulin, (3Z,6Z)-3-Benzylidene-6-{[5-(2-methyl-2-propanyl)-1H-imidazol-4-yl]methylene}-2,5-piperazinedione]", "values": [{"measurement": "dose comparison for increasing plasma haptoglobin levels", "setting": "30 mg/m^2 vs lower doses (10, 20 mg/m^2), p<0.01", "value": "most effective dose"}, {"measurement": "mean (SD) increase of maximum haptoglobin levels from baseline", "setting": "Plinabulin 30 mg/m^2 single dose on Day 1 of 21-day cycle with TAC, baseline mean (SD) 1.32 (0.453) g/L, p<0.0005", "value": "1.61 (1.29) g/L"}, {"measurement": "fold increase of maximum haptoglobin levels", "setting": "Plinabulin 30 mg/m^2 single dose, versus baseline", "value": "more than 2 fold"}, {"measurement": "duration of haptoglobin increase", "setting": "single dose 30 mg/m^2, FIG. 1", "value": "> 3", "unit": "weeks"}, {"measurement": "time to haptoglobin (Hp) increase after plinabulin dosing", "setting": "single dose 30 mg/m^2, P<0.03", "value": "≤ 2", "unit": "days"}]}]}
